In general, IC50 refers to the concentration that inhibits the measured activity by half. The low end stands for inhibition by little substance, the high end for a need for much substance. As a reminder, the LD50 is the dose expected to kill half of the subjects tested. The low end stands for greater toxicity, the high end for lower toxicity.

Series [1] deals with fasted rat. Put plainly: Test I: conditioned avoidance response (CAR), fasted rat treated orally (psychotropic). It counts as in vivo. As to conditions: for ED50: read-out: CAR-ED50.
Description: I. CAR-ED50 (mg/kg. of body weight) fasted rat
Tests I and II refer to the conditioned avoidance response. […] Test I is a modification of the same conditioned avoidance response test except that fasted rats were employed and the animals were treated orally.
The subject of series [2] is fed rat. Put plainly: Test II: conditioned avoidance response (CAR), fed rat treated intraperitoneally (psychotropic). Type of series: in vivo. As to conditions: for ED50: ip, read-out: CAR-ED50; for activity in the conditioned avoidance response test (Test II): in words. As to the method: Tests I and II refer to the conditioned avoidance response. Data with respect to Test II were obtained by the method described in the above Wu, et al. patents and publications in which trained rats were maintained on a standard laboratory diet and were treated intraperitoneally with the test drug. Test I is a modification of the same conditioned avoidance response test except that fasted rats were employed and the animals were treated orally.

A short description of series [3]: Test IV: spontaneous motor activity, activity cage mouse treated intraperitoneally (CNS depression). Type of series: in vivo. The settings on record: in vivo, ip.
Text: (§3) AED-0.3 (mg/kg. of body weight) activity cage,
(§4) Test IV involves measurement of spontaneous motor activity of mice as a reflection of the CNS depressant or sedative side effects of the test compound. […] The AED-0.3 reflects approximately 50% reduction in spontaneous motor activity.
Series [4] concerns the target alpha-adrenergic receptors in the cerebral cortex. Put plainly: Test VI: receptor binding assay, tritiated WB-4101 as ligand (alpha-adrenergic blockade). Set-up: species or system rat. As to conditions: for IC50: Test VI, tritiated WB-4101 as ligand, rat cerebral cortex, in excess of 100 nM is considered inactive. An excerpt:
(§1) Tests V and VI are receptor binding assays which measure the ability of a compound to prevent the binding of a radiolabeled ligand to specific high affinity sites in brain tissue. According to the state of the art, various ligands have been identified with aspects of CNS function or potential for side effects. The ability of a compound to inhibit labeled ligand binding in vitro is considered to be a reflection of the compound's ability to effect the corresponding CNS function or side effect in vivo.

Series [5] deals with rat. Put plainly: rat catalepsy test. It counts as in vivo. As to conditions: for rat catalepsy test result: oral doses of 200 mg/kg. The protocol: (§2) That dose of Compound No. 7, however, constituted the ALD50 dose for rats. In mice the ALD50 of Compound No. 7 was determined to be 500 mg/kg. of body weight.
In series [6] the target is T1, alpha-adrenergic receptor (Rattus norvegicus, UniProt P43140).
T1 sequence (P43140 1-466): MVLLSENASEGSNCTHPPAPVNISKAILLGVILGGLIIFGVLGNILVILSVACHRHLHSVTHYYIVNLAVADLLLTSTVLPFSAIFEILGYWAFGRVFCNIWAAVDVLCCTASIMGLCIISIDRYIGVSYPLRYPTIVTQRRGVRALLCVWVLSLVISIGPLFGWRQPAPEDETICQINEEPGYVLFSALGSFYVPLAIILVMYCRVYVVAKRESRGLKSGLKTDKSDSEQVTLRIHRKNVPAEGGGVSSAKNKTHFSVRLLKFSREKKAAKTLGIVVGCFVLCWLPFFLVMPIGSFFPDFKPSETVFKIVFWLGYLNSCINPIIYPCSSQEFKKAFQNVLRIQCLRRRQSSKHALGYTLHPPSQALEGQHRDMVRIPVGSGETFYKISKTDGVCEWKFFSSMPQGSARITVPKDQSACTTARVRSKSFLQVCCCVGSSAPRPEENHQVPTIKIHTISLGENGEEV
The series is described as follows: Test VII: alpha-adrenergic receptor blocking action in vitro, isolated rat seminal vesicle, 1-norepinephrine as spasmogen.
Text: (§5) IC50 (mcg/ml) alpha-adrenergic receptor blocking action
(§6) in vitro - rat seminal vesicle - 1-norepinephrine
(§7) Test VII is an in vitro measurement of alpha-adrenergic receptor blocking action employing the isolated seminal vesicle of the rat. […] A low value represents high activity.

Series [7] has as its system mouse. The series is described as follows: Test IV: spontaneous motor activity, activity cage mouse treated intraperitoneally (CNS depression). Type of series: in vivo. As to conditions: in words; mouse.
Text: as §3, §4
Series [8] has as its target T1, alpha-adrenergic receptor.
Text: as §5, §6, §7
The nature of series [9]: Test III: spontaneous motor activity, activity cage mouse treated orally (CNS depression). As to conditions: in vivo, po.
Text: (§8) AED-0.3 (mg/kg. of body weight) activity cage
as §4
Series [10] concerns mouse. The description is as above. The settings on record: in words; for sedative action (Tests III and IV): oral and intraperitoneal.
Text: as §8, §4
Series [11] can be described thus: in vivo. As to conditions: mouse, po.
Text: as §8, §4
The target of series [12] is T2, dopamine binding, corpus striatum (Rattus norvegicus, UniProt P61169).
T2 construct: The corpus striatum of male Sprague-Dawley rats (Charles River Laboratories) is employed as the test tissue; tissue Charles River Laboratories; host or cells: corpus striatum of male Sprague-Dawley rats
Put plainly: Test V: receptor binding assay, tritiated spiperone as ligand, dopamine binding assay (psychotropic). As to conditions: tritiated siperone as ligand, Compound 7: average of two determinations.
Text: V. Receptor binding assay, IC50 in nM, tritiated siperone as
as §1
Test V is a dopamine binding assay which reflects neuroleptic activity (Burt, Creese, and Snyder, Molec. Pharmacol. 12:800 (1976); Burt, Creese, and Snyder, Science 196: 326 (1977); Creese, Burt, and Snyder, Science 192: 481 (1976)). The corpus striatum of male Sprague-Dawley rats (Charles River Laboratories) is employed as the test tissue. The radiolabeled ligand is tritiated spiperone. […] Thus, any value less than 1000 nM in Test V represents potential neuroleptic utility.

Series [13] in a line: ALD50 for rats. As to conditions: rat, in vivo, oral dose of the catalepsy test. As to the method:
as §2

A short description of series [14]: ALD50 in mice. As to conditions: mouse, in vivo. The protocol:
as §2

[15] abbreviates: Test IV, activity cage mouse, intraperitoneal, reflects approximately 50% reduction in spontaneous motor activity, read-out: AED-0.3.
[16] abbreviates: Test II, fed rat, intraperitoneal.

Molecules are shown by their SMILES. Read-outs that look alike come from different tables or passages of the source.

T2 sequence (P61169 whole entry): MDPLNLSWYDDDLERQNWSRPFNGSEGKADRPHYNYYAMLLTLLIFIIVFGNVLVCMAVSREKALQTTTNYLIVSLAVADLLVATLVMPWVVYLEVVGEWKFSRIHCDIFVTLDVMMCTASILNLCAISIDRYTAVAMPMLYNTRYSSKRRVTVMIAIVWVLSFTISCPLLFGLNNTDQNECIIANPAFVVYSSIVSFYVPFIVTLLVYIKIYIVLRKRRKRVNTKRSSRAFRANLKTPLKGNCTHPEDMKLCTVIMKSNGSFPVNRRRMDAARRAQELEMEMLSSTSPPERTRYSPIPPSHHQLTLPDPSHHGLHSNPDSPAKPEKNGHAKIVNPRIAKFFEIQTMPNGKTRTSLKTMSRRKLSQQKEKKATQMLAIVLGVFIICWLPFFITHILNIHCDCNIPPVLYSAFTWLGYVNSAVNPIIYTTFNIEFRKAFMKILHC

With `CN(C)CCCN1c2ccccc2Sc2ccc(Cl)cc21` [Chlorpromazine, chlorpromazine], the ED50 in series [1] (Rattus norvegicus, po) is 39 mg/kg; in [2] (Rattus norvegicus), 4.8 mg/kg; in series [3] (setting [15]) it was 3.6 mg/kg. In series [4], this molecule had an IC50 of 31 nM. For the same molecule, the “ED5 in the rat catalepsy test” value in series [5] stood at 4.1 mg/kg. Moreover, in series [6] (in words, rat seminal vesicle), the alpha-adrenergic blocking activity entry was “strong”.
Regarding `COc1cccc(N2CCN(CCCN3C(=O)CC4(CCCC4)CC3=O)CC2)n1` [Compound No. 2], in series [2] (fed rat, intraperitoneal), the “activity in the conditioned avoidance response test (Test II)” value is on record as “very substantially less active”. Besides, the ED50 in [2] (setting [16]) was above 50 mg/kg; in series [3] (setting [15]), 7.4 mg/kg; in [9], 82 mg/kg. The “activity by intraperitoneal route (Test IV) relative to oral route (Test III)” value in [7] is “several-fold stronger activity”. Also, the IC50 in [4] is 48 nM; in [6], 182 nM. Also, the “alpha-adrenergic blocking agent (Tests VI and VII)” value in series [8] is “relatively strong”.
For `O=C1CC2(CCCC2)CC(=O)N1CCCCN1CCN(c2ccccn2)CC1` [Compound No. 3], the ED50 in series [1] (Test I, fasted rat, oral) was 34 mg/kg; in [2] (setting [16]), 2.8 mg/kg; in [3] (setting [15]), 2.6 mg/kg; in series [9] it was 10 mg/kg. Also, in series [7], the “activity by intraperitoneal route (Test IV) relative to oral route (Test III)” value was “several-fold stronger activity”. Also, the IC50 in series [4] is 280 nM; in series [6], 871 nM. Further, in series [10], the “sedative action (Tests III and IV)” value is listed as “high”.
For the molecule `N#Cc1cccnc1N1CCN(CCCCN2C(=O)CC3(CCCC3)CC2=O)CC1` [Compound No. 4, 2-[4-[4-(7,9-Dioxo-8-azaspiro[4.5]decan-8-yl)butyl]-1-piperazinyl]pyridine-3-carbonitrile], the ED50 in series [1] (Test I, fasted rat, oral) was found to be 24 mg/kg; in series [9] it was 97 mg/kg. Besides, the “potency in Test I (neuroleptic action)” value in series [1] (in words, fasted rat, oral) is recorded as “good potency”. In addition, the IC50 in [4] stood at 360 nM. The “potency in Test VI (alpha-adrenergic blocking action)” value in [4] (in words) is reported as “low potency”. In [5], the “rat catalepsy test result” value was “inactive”. For the same molecule, in [10] (oral), the “potency in Test III (sedative action)” value is “low potency”. Moreover, in series [10], the “sedative action (Tests III and IV)” value is on record as “lack of sedative action”.
For the molecule `O=C1CC2(CCCC2)CC(=O)N1CCCCN1CCN(c2ncccn2)CC1` [Compound No. 6, buspirone], the ED50 in series [1] (Test I, fasted rat, oral) was 48 mg/kg; in series [2] (setting [16]) it was 4.3 mg/kg; in [3] (mouse), 33 mg/kg; in series [11], 92 mg/kg. Further, in series [5], the “rat catalepsy test result” value is “inactive”.
For the molecule `COc1cccnc1N1CCN(CCCCN2C(=O)CC3(CCCC3)CC2=O)CC1` [Compound No. 7], the ED50 in series [1] (Test I, fasted rat, oral) is 55 mg/kg. Also, the IC50 in series [12] was 100 nM; in series [4], 65 nM. Also, the “rat catalepsy test result” value in [5] was “inactive”. Further, the LD50 in [13] was 200 mg/kg; in series [14], 500 mg/kg.
Take `O=C1CC2(CCCC2)CC(=O)N1CCN1CCN(c2ccccn2)CC1` [compound 1]: the “activity in the conditioned avoidance response test (Test II)” value in series [2] (fed rat, intraperitoneal) is “very substantially less active”. Further, the ED50 in [2] (setting [16]) came to 22.6 mg/kg; in [3] (setting [15]), 41 mg/kg. Further, in [6], the IC50 was 5830 nM.
For the molecule `CC1CN(c2ncccc2C#N)CCN1CCCCN1C(=O)CC2(CCCC2)CC1=O` (centres unmarked) [compound 5, 2-[4-[4-(7,9-Dioxo-8-azaspiro[4.5]decan-8-yl)butyl]-3-methyl-1-piperazinyl]pyridine-3-carbonitrile], the ED50 in series [1] (Test I, fasted rat, oral) stood at 85 mg/kg. In [12], this molecule yielded an IC50 of 400 nM.

Source of the values: US4305944A, “N-[(4-[3-cyano substituted pyridyl]piperazino)alkyl]-azaspirodecanediones” (priority 1980, dated 1981).
